Experimental data from ChEMBL document CHEMBL4418281, “Carboxamide inhibitors” (2017).

Key:
[1] = biological target: E3 ubiquitin-protein ligase SMURF2 (Homo sapiens, UniProt Q9HAU4); assay: Inhibition of SMURF2 (unknown origin) in presence of E1/E2/Ub mix measured after 45 mins by europium-labeled streptavidin based TR-FRET assay
[2] = biological target: E3 ubiquitin-protein ligase SMURF1 (Homo sapiens, UniProt Q9HCE7); assay: Inhibition of SMURF1 (unknown origin) in presence of E1/E2/Ub mix measured after 45 mins by europium-labeled streptavidin based TR-FRET assay
E3 ubiquitin-protein ligase SMURF1, sequence (Q9HCE7 whole entry): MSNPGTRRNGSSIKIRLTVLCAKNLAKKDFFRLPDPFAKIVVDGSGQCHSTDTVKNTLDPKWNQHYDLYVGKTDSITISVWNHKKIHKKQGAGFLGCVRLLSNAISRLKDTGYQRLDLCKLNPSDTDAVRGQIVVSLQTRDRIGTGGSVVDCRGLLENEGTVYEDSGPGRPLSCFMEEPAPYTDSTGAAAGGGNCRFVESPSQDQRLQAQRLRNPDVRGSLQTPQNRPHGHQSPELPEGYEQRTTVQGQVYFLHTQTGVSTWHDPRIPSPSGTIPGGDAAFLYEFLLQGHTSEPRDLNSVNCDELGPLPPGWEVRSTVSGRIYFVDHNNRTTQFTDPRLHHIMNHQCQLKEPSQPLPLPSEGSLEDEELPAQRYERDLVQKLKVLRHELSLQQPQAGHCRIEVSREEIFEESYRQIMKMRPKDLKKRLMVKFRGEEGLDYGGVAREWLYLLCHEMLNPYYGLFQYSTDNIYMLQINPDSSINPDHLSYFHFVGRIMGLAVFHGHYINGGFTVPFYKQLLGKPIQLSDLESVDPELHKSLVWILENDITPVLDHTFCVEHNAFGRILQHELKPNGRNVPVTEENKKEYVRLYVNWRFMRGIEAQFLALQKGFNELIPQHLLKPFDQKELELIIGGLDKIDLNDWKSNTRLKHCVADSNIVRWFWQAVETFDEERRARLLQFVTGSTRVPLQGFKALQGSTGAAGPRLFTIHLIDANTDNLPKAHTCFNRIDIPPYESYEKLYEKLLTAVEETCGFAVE

E3 ubiquitin-protein ligase SMURF2, sequence (Q9HAU4 whole entry): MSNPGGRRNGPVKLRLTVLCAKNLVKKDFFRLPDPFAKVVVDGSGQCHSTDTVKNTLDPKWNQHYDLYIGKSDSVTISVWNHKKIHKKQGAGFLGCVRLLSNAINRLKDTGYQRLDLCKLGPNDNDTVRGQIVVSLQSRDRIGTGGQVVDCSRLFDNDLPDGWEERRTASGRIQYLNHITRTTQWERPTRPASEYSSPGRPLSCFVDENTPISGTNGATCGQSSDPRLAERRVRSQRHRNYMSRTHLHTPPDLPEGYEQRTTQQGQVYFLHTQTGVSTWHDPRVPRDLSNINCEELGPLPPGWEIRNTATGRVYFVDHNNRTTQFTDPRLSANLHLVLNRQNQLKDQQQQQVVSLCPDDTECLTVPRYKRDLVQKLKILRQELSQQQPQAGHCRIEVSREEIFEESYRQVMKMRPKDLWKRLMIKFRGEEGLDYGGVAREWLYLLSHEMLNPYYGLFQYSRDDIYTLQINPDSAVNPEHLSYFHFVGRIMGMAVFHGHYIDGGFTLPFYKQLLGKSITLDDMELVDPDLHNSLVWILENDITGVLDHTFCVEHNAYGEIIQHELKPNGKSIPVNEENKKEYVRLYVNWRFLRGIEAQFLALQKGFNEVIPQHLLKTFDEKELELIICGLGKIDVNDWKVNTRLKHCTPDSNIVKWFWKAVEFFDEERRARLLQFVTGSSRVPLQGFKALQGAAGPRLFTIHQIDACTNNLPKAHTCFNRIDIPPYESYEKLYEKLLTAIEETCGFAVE

IC50 [1] | Compound | IC50 [2]
20 µM | Cc1c(NC(=O)c2noc3c2CCCc2cc(OC(F)(F)F)ccc2-3)c(=O)n(Cc2ccccc2F)n1C | 
20 µM | COc1ccc2c(c1)CCCc1c(C(=O)Nc3c(C)n(C)n(Cc4ccc(F)cc4)c3=O)noc1-2 | 
20 µM | Cc1c(NC(=O)c2noc3c2CCCc2cc(OC(F)(F)F)ccc2-3)c(=O)n(Cc2ccc(F)cc2)n1C | 

Compound | IC50 [1] | IC50 [2]
Cc1c(NC(=O)c2noc3c2CCCc2cc(CC(C)C)ccc2-3)c(=O)n(-c2ccccc2Cl)n1C | 0.74 µM | 0.0225 µM
